Where “and” joins values, the source holds several entries; their conditions need not be identical. Equal values may be shown once. Read-outs that look alike come from different tables or passages of the source.
Legend:
[1] = 7-day toxicology study in mice (clinical observations, body weight, food consumption, necropsy, hematology); assay type: in vivo, male C57BL/6 mice; settings: for WBC (10^9/L), Mean: group mean; for WBC (10^9/L), Mean / WBC (10^9/L): day 8, 24 hours after last dose; for WBC (10^9/L): individual animal
Description: Example 41: 7-Day Toxicology Study in Mice
Blood samples were taken on day 8, 24 hours after last dose.

[2] = MTD, pharmacokinetics and brain penetration after PO administration; assay type: in vivo, male C57BL/6 mice; settings: male; for half-life: MTD mouse, read-out: t½ (converted); for AUC(0-t): C57BL/6, mouse
Description: All PO dosing solutions were prepared in 50 mM citrate buffer (pH 4.0).
The blood collection was performed as follows: the animal was restrained manually at the designated time points, approximately 500 μL of blood sample was collected via cardiac puncture vein into EDTA-2K tubes. The whole blood needed to be divided into two parts; one part was placed in the tube containing EDTA-2K for plasma generation and the other was used for the hematology assay, respectively. The blood samples for plasma generation were maintained in wet ice first and centrifuged to obtain plasma (2000 g, 4° C., 5 min) within 15 minutes post sampling. The brain collection was performed as follows: a mid-line incision was made in the animal's scalp and the skin was retracted. Using small bone cutters and rongeurs, the skull overlying the brain was removed. The brain was removed using a spatula and rinsed with cold saline. The brain was placed in screw-top tubes, and then stored at −70° C. until analysis. The CSF collection was performed as follows: a mid line incision was made on the neck. The muscle under the skin was cut to expose the cisterna magna. The cisterna magna was penetrated with the sharp end of one capillary (Burn one end of capillary to make it sharp). The CSF was sucked spontaneously into the capillary.
Plasma sample preparation: An aliquot of 30 μL sample was added with 100 μL MeCN containing 100 ng/mL IS (Dexamethasone). The mixture was vortexed for 10 min and centrifuged at 5800 rpm for 10 min. An aliquot of 40 μL supernatant was added to 40 μL H2O and the mixture was vortexed for 5 min. An aliquot of 2 μL supernatant was injected for LC-MS/MS analysis.
An aliquot of 30 μL brain homogenate (brain:PBS=1:3, w/v) sample was added to 100 μL MeCN containing 100 ng/mL IS (Dexamethasone). The mixture was vortexed for 10 min and centrifuged at 5800 rpm for 10 min. An aliquot of 40 μL supernatant was added to 40 μL H2O and the mixture was vortexed for 5 min. An aliquot of 2 μL supernatant was injected for LC-MS/MS analysis.
An aliquot of 3 μL sample was added to a mixture of 6 μL CSF, 9 μL MeOH/H2O (1/1), 40 μL MeCN containing 200 ng/mL IS (Dexamethasone), and 116 μL H2O. The mixture was vortexed for 5 min. An aliquot of 4 μL was injected for LC-MS/MS analysis.
The sample analysis was performed on UPLC-MS/MS-02 (Triple Quad™ 4000) under the following conditions: positive ion, ESI, MRM detection using dexamethasone as internal standard. HPLC conditions: mobile phase A: H2O-0.1% formic acid, mobile phase B: MeCN-0.1% formic acid on: ACQUITY UPLC HSS T3 (2.1×50 mm, 1.8 μm) at 60° C.

[3] = Mouse brain uptake assay (MBUA), 3 mg/kg IV, 0-24 h, 4 time points; assay type: in vivo, male CD1 mice
Description: Example 38: Pharmacokinetics and Brain Penetration Experiment to Determine Brain and Plasma Concentrations of Compounds after IV Administration to Male CD1 Mice
The study design (9 animals) consisted of administrating the drug (IV: 3 mg/kg (5 mL/kg) via tail vein injection) and collecting samples at terminal bleeding for plasma and brain at 0.083, 0.5 and 1 h. The IV dosing solution was prepared in 50 mM citrate buffer (pH 4.0) at 0.6 mg/mL. The blood collection was performed as follows: the animal was restrained manually and approximately 150 μL blood/time point was collected into a dipotassium EDTA tube via retro orbital puncture under anesthesia with isoflurane. The blood sample was put on ice and centrifuged to obtain a plasma sample (2000 g, 5 min under 4° C.) within 15 minutes. The brain collection was performed as follows: a mid-line incision was made in the animal's scalp and the skin was retracted. Using small bone cutters and rongeurs, the skull overlying the brain was removed. The brain was removed using a spatula and the brain rinsed with cold saline. The brain was placed in screw-top tubes, and the tubes were stored at −70° C. until analysis.
An aliquot of 30 μL sample was added to 150 μL MeCN containing 50 ng/mL IS (Dexamethasone). The mixture was vortexed for 5 min and centrifuged at 14,000 rpm for 5 min. An aliquot of 5 μL supernatant was injected for LC-MS/MS analysis.
An aliquot of 30 μL brain homogenate (brain:PBS=1:3, w/v) sample was added to 150 μL IS in MeCN (Dexamethasone, 50 ng/mL). The mixture was vortexed for 5 min and centrifuged at 14,000 rpm for 5 min. An aliquot of 5 μL supernatant was injected for LC-MS/MS analysis.
The sample analysis was performed on LCMS/MS-003 (API4000, triple quadruple) under the following conditions: positive ion, ESI, MRM detection using dexamethasone as internal standard. HPLC conditions: mobile phase A: H2O (0.025% formic acid (FA) with 1 mM NH4OAc); mobile phase B: MeOH (0.025% FA with 1 mM NH4OAc) on Waters X-Bridge C18 (2.1×50 mm, 2.5 μm) column at 60° C.
A similar experiment was performed with 4 time points taken from 0-24 h.

Q: Which “WBC (10^9/L), Mean” value ([1]; Group 2, PO-10 mg/kg) does the source give for Cc1cccnc1[C@@H]1CCC[C@H](c2nc3cccc(N4CCN(C)CC4)c3[nH]2)N1C (racemic) [I-3, 2-((2R,6S)-1-methyl-6-(3-methylpyridin-2-yl)piperidin-2-yl)-7-(4-methylpiperazin-1-yl)-1H-benzo[d]imidazole] here?
A: 4.92 10^9/L

Q: And the “WBC (10^9/L)” value ([1]; Group 2, PO-10 mg/kg, 10 mg/kg)?
A: 3.67 10^9/L and 6.66 10^9/L and 4.44 10^9/L

Q: And the “WBC (10^9/L), Mean” value ([1]; Group 3, PO-30 mg/kg)?
A: 8.58 10^9/L

Q: What about the “WBC (10^9/L)” value ([1]; Group 3, PO-30 mg/kg, 30 mg/kg) of the same molecule?
A: 11.6 10^9/L and 6.51 10^9/L and 7.69 10^9/L

Q: And the “WBC (10^9/L), Mean” value ([1]; Group 4, PO-100 mg/kg)?
A: 18.7 10^9/L

Q: What about the “WBC (10^9/L)” value ([1]; Group 4, PO-100 mg/kg, 100 mg/kg) of the same molecule?
A: 20.4 10^9/L

Q: What about the necropsy finding ([1]; dose of 30 mg/kg P.O., 7 days) of the same molecule?
A: One mouse had an enlarged kidney

Q: And the white blood cells ([1]; dose of 100 mg/kg P.O., 7 days)?
A: sustained increase

Q: What about the “overt toxicity (clinical observations, body weight, food consumption)” value ([1]; male C57BL/6 mice, 7 days repeat dosing up to 100 mg/kg/day by oral gavage) of the same molecule?
A: no overt signs of toxicity

Q: And the body weight ([1]; male C57BL/6 mice, 7 days, up to 100 mg/kg/day by oral gavage)?
A: remained stable

Q: What about the half-life ([2]; C57BL/6, in vivo, single administration, D 1-50 mg/kg) of the same molecule?
A: 198 min

Q: What about the AUC(0-t) ([2]; brain, multiple administration, D 5-300 mg/kg, read-out: AUClast (b)) of the same molecule?
A: 384000 ng·h/mL

Q: And the AUC(0-t) ([2]; brain, single administration, D 1-50 mg/kg, read-out: AUClast (b))?
A: 15500 ng·h/mL

Q: What about the AUC(0-t) ([2]; plasma, multiple administration, D 5-300 mg/kg, read-out: AUClast (p)) of the same molecule?
A: 142000 ng·h/mL

Q: And the AUC(0-t) ([2]; plasma, single administration, D 1-50 mg/kg, read-out: AUClast (p))?
A: 7100 ng·h/mL

Q: And the half-life ([2]; C57BL/6, plasma, multiple administration, D 5-300 mg/kg)?
A: 366 min

Q: What does the source list for CN1CCN(c2cccc3nc([C@H]4CCC[C@@H](c5ncccc5Cl)N4)[nH]c23)CC1 (racemic) [I-122]?
A: Kp ([3]; male, CD1, mouse, brain/plasma, iv, 3 mg/kg): 4.17; clearance ([3]; male, CD1, plasma, mouse, 3 mg/kg IV, 0-24 h, 4 time points): 26.2 mL/min/kg; half-life ([3]; male, CD1, plasma, mouse, 3 mg/kg IV, 0-24 h, 4 time points, read-out: t½ (converted)): 210 min; AUC(0-t) ([3]; male, CD1, brain, mouse, 3 mg/kg IV, 0-24 h, read-out: AUClast (b)): 7930 ng·h/mL; AUC(0-t) ([3]; male, CD1, plasma, mouse, 3 mg/kg IV, 0-24 h, read-out: AUClast (P)): 1900 ng·h/mL; Kp uu ([3]; male, CD1, unbound brain/unbound plasma, mouse, 3 mg/kg IV, 0-24 h): 1.15; fraction unbound ([3]; mouse, fraction unbound to brain proteins, read-out: Fu (b) %): 0.035; fraction unbound ([3]; mouse, fraction unbound to plasma proteins, read-out: Fu (p) %): 0.127

From US10988465B2, “CXCR4 inhibitors and uses thereof” (X4 Pharmaceuticals, Inc., priority 2016, dated 2021)
